# Measured values taken from patent US20230021365A1, “COMPOSITION COMPRISING P53-ACTIVATING PEPTIDE” (SUPADELIXIR INC., priority 2019, published 2023).
# System: interaction between p53 and POLII
# Assay: in situ PLA (proximity ligation assay) of physical binding between p53 and RNA Polymerase II (POLII) in HaCaT cells
# Assay type: cell-based, human
# Details: summary statement in the description
# Experimental: After treating cells with the peptides of the present invention, the effects thereof on the physical binding between p53 and RNA Polymerase II (POLII) were evaluated through an in situ PLA (proximity ligation assay) method. HaCaT cells (human keratinocytes, CLS) were added at 4.5×10^4 cells per well, along with a DMEM containing 10% fetal bovine serum, to each well of a 24-well microplate and then cultured at 37° C. in a 5% CO2 incubator for 24 hours. The peptide solutions of Example 2 were added thereto so that the concentration of each peptide in the medium was 20 μM, followed by incubating for 1 hour under the same condition. […] The cells of each well were washed with PBS, fixed by treating with 2% formaldehyde for 15 minutes, and then treated with 0.1% TritonX-100 for 5 minutes to increase antibody permeability into the cells. Anti-p53 polyclonal antibody (Abcam, UK) and anti-POLII polyclonal antibody (Santa Cruz, Calif., USA) were added thereto. After the PLA probe was added thereto using the in situ PLA kit (Sigma-Aldrich), hybridization, ligation, amplification and mounting steps were carried out according to the manufacturer's protocol. Each physical interaction between p53 and POLII was quantified by measuring the luminescence signals (PLA signals) detected in each cell with a confocal laser microscope (Olympus fluoview FW1000; Olympus, Tokyo, Japan).
row,Substance,activity in decreasing the interaction between p53 and MDM2 and thus increasing the interaction between p53 and POLII
1,Leu-Ala-Asp (LAD) [Pep 4],particularly excellent activity
2,Leu-Arg-Asp (LRD) [Pep 6],particularly excellent activity
3,Leu-Gly-Asp (LGD) [Pep 3],particularly excellent activity
4,Leu-Lys-Asp (LKD) [Pep 7],particularly excellent activity
5,Leu-Ser-Asp (LSD) [Pep 2],particularly excellent activity
6,Leu-Thr-Asp (LTD) [Pep 18],particularly excellent activity
7,Leu-Tyr-Asp (LYD) [Pep 9],particularly excellent activity
